Data set [1] in a line: Maximum absorbance wavelength in pH 7.4 phosphate-buffered saline. The conditions noted are these: for λmax: 2 μM in 0.1 M PBS. The data set is classed as physicochemical. The procedure:
Table 1 includes exemplary compounds according to formula II, in which n is 2, R^1 is —CH2—, m is 2, R^2 is methyl, R^14 to R^17 are methyl, and R^5, R^6, R^8, R^10, R^11 and R^13 are hydrogen. Other substituents are as indicated. The maximum absorbance wavelength (λmax) was measured in pH 7.4 phosphate-buffered saline.
Unless stated otherwise, reactions were conducted in oven-dried glassware under an atmosphere of nitrogen or argon using anhydrous solvents (passed through activated alumina columns) All other commercially obtained reagents were used as received. […] Flash column chromatography was performed using normal phase or reverse phase on a CombiFlash® Rf 200i (Teledyne Isco Inc.). […] Data for ^1H NMR spectra are reported as follows: chemical shift (6 ppm), multiplicity, coupling constant (Hz), and integration. ^13C NMR spectra were recorded on Varian spectrometers (at 100 or 125 MHz). Data for ^13C NMR spectra are reported in terms of chemical shift. IR spectra were recorded on a JASCO FT/IR 4100 spectrometer and are reported in terms of frequency of absorption (cm^−1). High-resolution LC/MS analyses were conducted on a Thermo-Fisher LTQ-Orbitrap-XL hybrid mass spectrometer system with an Ion MAX API electrospray ion source in positive ion mode. Separations were carried out on a narrow-bore (50×2.1 mm), Zorbax Rapid-Resolution, reversed-phase C18 (3.5 μm) column with a flow rate of 250 μL/min with a 10 min, 2-90% gradient of MeCN/H2O containing 0.1% HCOOH. […] Fluorescence traces and quantum yield measurements were recorded on a PTI QuantaMaster steady-state spectrofluorimeter operated by FelixGX 4.0.3 software, with 10 nm excitation and emission slit widths, 0.1 s integration rate, and enabled emission correction.

The nature of data set [2]: Quantum yields, molar absorption coefficients, absorbance and emission spectra. It is filed as physicochemical. The settings on record: for ε (M^−1cm^−1): Table 4 footnote: methanol, method b204: PBS, 25° C.; for λem (nm) / λmax (nm): methanol.
For data set [3] the following is noted: methanol; James et al., Theranostics 2013; cited from earlier work.
The format of data set [4] is physicochemical. The settings on record: buffer, pH 7.4. The procedure:
Solutions of commercially available IRDye 800 CW (a phenol-substituted heptamethine cyanine available from Li-Cor Biotechnology, Lincoln, Nebr.) and compound 13 (Glut-Cy-503), 10 μM, were prepared in pH 7.4 phosphate-buffered saline and exposed to physiologically relevant concentrations of glutathione (GSH, 1 mM) at room temperature. […] Upon analysis by LCMS, signals consistent with the glutathione adduct were observed concomitant with the disappearance of the phenol (IRDye 800 CW) (FIG. 7).

SMILES strings stand for the structures.

With `CCCN1/C(=C/C=C2\CCCC(/C=C/C3=[N+](CCC)c4ccccc4C3(C)C)=C2OCCN(C)C(=O)OCc2ccccc2)C(C)(C)c2ccccc21` [Compound 8], the λmax in data set [1] (pH 7.4, with 20% DMSO (v/v)) was 763 nm. For the same molecule, in data set [2], the λex came out at 774 nm, the “ε (M^−1cm^−1)” value was 187,000 M^−1cm^−1, the “λem (nm)” value was determined as 797 nm and the “λmax (nm)” value was 774 nm. Also, in data set [2] (measured in methanol relative to ICG), the Φf came to 0.22.
On to `CC1(C)C(/C=C/C=C/C=C/C=C2\N(CCCCS(=O)(=O)O)c3ccc4ccccc4c3C2(C)C)=[N+](CCCCS(=O)(=O)[O-])c2ccc3ccccc3c21` [ICG, indocyanine green, reference compound], for which, in data set [2], the “ε (M^−1cm^−1)” value is reported as 204,000 M^−1cm^−1, the “λem (nm)” value is recorded as 822 nm and the “λmax (nm)” value stood at 785 nm. In addition, in data set [3], the Φf of standard is listed as 0.078.
Turning to `CC1(C)C(=CC=C2CCCC(C=CC3=[N+](CCCCS(=O)(=O)[O-])c4ccccc4C3(C)C)=C2Cl)N(CCCCS(=O)(=O)[O-])c2ccccc21.[Na+]` [IR783], in data set [3], the Φf of standard was 0.084.
As to `CCCN1/C(=C/C=C2\CCCC(/C=C/C3=[N+](CCC)c4ccccc4C3(C)C)=C2OCCN(C)C(=O)OCC2c3ccccc3-c3ccccc32)C(C)(C)c2ccccc21` [Compound 9], in data set [1] (pH 7.4, with 20% DMSO (v/v)), the λmax turned out to be 765 nm.
Molecule `CCCN1/C(=C/C=C2\CCCC(/C=C/C3=[N+](CCC)c4ccccc4C3(C)C)=C2OCCN(C)C(=O)CCCC(=O)O)C(C)(C)c2ccccc21` [Compound 10] gave a λmax in data set [1] (pH 7.4, with 0.1% DMSO (v/v)) of 760 nm.
Regarding `CCCN1/C(=C/C=C2\CCCC(/C=C/C3=[N+](CCC)c4ccccc4C3(C)C)=C2N(C)CCO)C(C)(C)c2ccccc21` [Compound 6], in data set [1] (solvent not given), the “broad hypsochromic absorbance maximum” value worked out at 687 nm.
As to `CC1(C)C(=CC=C2CCCC(C=CC3=[N+](CCCCCC(=O)[O-])c4ccc(S(=O)(=O)[O-])cc4C3(C)C)=C2Oc2ccc(S(=O)(=O)[O-])cc2)N(CCCCS(=O)(=O)[O-])c2ccc(S(=O)(=O)[O-])cc21.[Na+].[Na+].[Na+].[Na+]` [IRDye 800 CW], the “t1/2 of degradation to the glutathione adduct” value in data set [4] was determined as 50 min.

Source of the values: patent US10876003B2, “Class of stable heptamethine cyanine fluorophores and biomedical applications thereof” (priority 2014, dated 2020).
